According to patent US9625449B2, “Determining the bioavailability of zinc (II) ions” (Colgate-Palmolive Company, priority 2014, dated 2017):

What was measured:
Type in all cases: physicochemical
[1] = Reaction of zincon with metal ions (colour change): Fe2+; details: solution with Fe^2+
Text: (§1) Certain dyes used to detect zinc ions also react with other metal ions. For example, Eriochrome Black T reacts with Mg^2+ and Ca^2+ ions, which are commonly encountered in biological tissues. Sources of calcium ions are frequently included in oral care compositions.

[2] = Reaction of zincon with metal ions (colour change): Co2+; details: solution with Co^2+
Text: as §1

[3] = Absorbance of zincon as function of pH (detection of zinc)
Text: It has been reported in the literature that the working pH range for zincon is pH 8.5 to 9.5 (Yoe and Rush, 1952. “A new colorimetric reagent for zinc”, Analytica Chimica Acta, vol. 6, pp 526 to 527).

[4] = Reaction of zincon with metal ions (colour change): Zn2+; details: solution with Zn^2+
Text: as §1

[5] = Reaction of zincon with metal ions (colour change): Ca2+; details: solution with Ca^2+
Text: as §1

[6] = Reaction of zincon with metal ions (colour change): Cu2+; details: solution with Cu^2+
Text: as §1

[7] = Reaction of zincon with metal ions (colour change): Mg2+; details: solution with Mg^2+
Text: as §1

For `O=C(O)c1ccccc1N=NC(=NNc1cc(S(=O)(=O)[O-])ccc1O)c1ccccc1.[Na+]` [zincon, o-[α-(2-hydroxy-5-sulfophenylazo)-benzylidene hydrazino]benzoic acid], which “colour change of zincon” value [1] is on record?
Its value is “green solution”.

And the “colour change of zincon” value [2]?
Its value is “sky blue solution”.

And the “Absorbance of sample at 610 nm” value ([3]; pH 7.0)?
Its value is 0.233.

What about the “Absorbance of sample at 610 nm” value ([3]; pH 7.5) of the same molecule?
The value was 0.232.

And the “Absorbance of sample at 610 nm” value ([3]; pH 8.0)?
Its value is 0.245.

What about the “Absorbance of sample at 610 nm” value ([3]; pH 8.5) of the same molecule?
Its value is 0.251.

And the “Absorbance of sample at 610 nm” value ([3]; pH 9.5)?
Its value is 0.252.

What about the “colour change of zincon” value [4] of the same molecule?
Its value is “deep blue complex”.

What about the “colour change of zincon” value [5] of the same molecule?
The value was “did not undergo a colour change”.

And the “colour change of zincon” value [6]?
Its value is “difficult to distinguish from that of Zn^2+”.

And the “colour change of zincon” value [7]?
Its value is “did not undergo a colour change”.
